Source: patent publication US7217703B2, “8-(2-hydroxyphenoxy)octyldiethanolamine and salts thereof for delivery of active agents” (Emisphere Technologies, Inc., priority 2004, dated 2007)

Assay: Oral absorption of Ibandronate in rats (urine Ibandronate, 16 h collection, GC/MS)
Format: in vivo, male Sprague-Dawley rats
Details: oral gavage, rat, urine 0-16 h post-dosing
Experimental: Oral absorption studies were performed in rats to evaluate the delivery of the bisphosphonate, Ibandronate, when co-administered with a delivery agent compound of the present invention. Sprague-Dawley rats were administered Ibandronate alone or in combination with a delivery agent compound by oral gavage. Urine samples were collected up to 16 hours post-dosing for Ibandronate quantitations. […]
Urine Ibandronate levels from treated rats were determined using a GC/MS method with a standard calibration range of 0–2000 ng/mL and a limit of quantitation (LOQ) of 2.5 ng/ml. Quality control (QC) samples were prepared fresh daily and were analyzed with samples from treated rats. […]
The amount of Ibandronate excreted in the urine is the dose response and was plotted as a straight line against the Ibandronate dose (linear dose-response relationship was assumed). The relative potency of the four delivery agent-containing Ibandronate formulations were calculated against the control formulations (without delivery agent) using a Student's t-test. […]

For `CCCCCN(C)CCC(O)(P(=O)(O)O)P(=O)(O)O` [Ibandronate], which “Mean urine Ibandronate concentration” value (Ibandronate 5 mg/kg alone) is on record?
The value was 426.8.

What about the “Mean urine Ibandronate concentration” value (Ibandronate 15 mg/kg alone) of the same compound?
Its value is 4157.5.
